Reference: ChEMBL document CHEMBL4402585 (J Med Chem, 2020)
The source made the active and inactive calls. No cut-off for these calls is given here.

Assays:
[1] = molecular target: T1, Bromodomain-containing protein 4 (Homo sapiens, UniProt O60885); assay: (§1) Inhibition of SGRG-K(Ac)-GG-K(Ac)-GLG-K(Ac)-GGA-K(Ac)-RHRKVGG-K-Biotin binding to N-terminal His6-tagged BRD4 bromodomain 1 (49 to 170 residues) (unknown origin) expressed in Escherichia coli BL21 (DE3) preincubated for 15 mins followed by biotin-labeled H4 peptide addition and measured after 10 mins by Alphascreen assay
[2] = molecular target: T1, Bromodomain-containing protein 4; assay: as §1, with “2 (344” for “1 (49”, “455” for “170”
[3] = molecular target: Histone acetyltransferase p300 (Homo sapiens, UniProt Q09472); assay: Inhibition of MSGRGK(Ac)-GGK(Ac)GLGK(Ac)GGAKRHR-biotin binding to EP300 (1040 to 1160 residues) (unknown origin) expressed in Escherichia coli BL21 (DE3) by Alphascreen assay
[4] = molecular target: T1, Bromodomain-containing protein 4
Description: Binding affinity to N-terminal His6-tagged BRD4 bromodomain 1 (49 to 170 residues) (unknown origin) expressed in Escherichia coli BL21 (DE3) assessed as change in melting temperature at 1:100 molar ratio by SYPRO orange dye based fluorescence thermal shift assay

MV4-11 [5] = assay: Antiproliferative activity against human MV4-11 cells assessed as reduction in cell viability measured after 72 hrs by Celltitre-glo luminescence assay; assay type: functional, cell-based; conditions: MV4-11, 72 h
Kasumi 1 = assay: Antiproliferative activity against human Kasumi-1 cells assessed as reduction in cell viability measured after 72 hrs by Celltitre-glo luminescence assay; assay type: functional, cell-based; conditions: Kasumi 1, 72 h
RS4-11 = assay: Antiproliferative activity against human RS4:11 cells assessed as reduction in cell viability measured after 72 hrs by Celltitre-glo luminescence assay; assay type: functional, cell-based; conditions: RS4-11, 72 h
MM1.S = assay: Antiproliferative activity against human MM1S cells assessed as reduction in cell viability measured after 72 hrs by Celltitre-glo luminescence assay; assay type: functional, cell-based
MV4-11 [6] = assay: Cell cycle arrest in human MV4-11 cells assessed as increase in accumulation at G1-phase at 125 nM measured after 24 hrs by propidium iodide staining based flow cytometry; assay type: functional
MV4-11 [7] = assay: Antitumor activity against human MV4-11 cells xenografted in mouse assessed as tumor growth inhibition at 50 mg/kg, po administered for 28 days and measured every 2 to 3 days during compound dosing relative to control; assay type: functional; conditions: MV4-11, po, read-out: TGI
[8] = molecular target: T1, Bromodomain-containing protein 4; assay: Inhibition of HSGRGK(Ac)GGK(Ac)GLGK(Ac)GGAK(Ac)RHRK(Biotin)-OH binding to recombinant human His6-tagged BRD4 bromodomain 1 expressed in Escherichia coli BL21 (DE3)-R3-pRARE2 cells preincubated for 30 mins followed by HSGRGK(Ac)GGK(Ac)GLGK(Ac)GGAK(Ac)RHRK(Biotin)-OH addition and measured after 30 mins by Alphascreen assay
[9] = Clearance in human liver microsomes at 0.1 uM preincubated for 10 mins followed by NADPH addition and measured up to 60 mins by LC-MS/MS analysis; assay type: ADME, Microsome; conditions: 1 h
[10] = Clearance in rat liver microsomes at 0.1 uM preincubated for 10 mins followed by NADPH addition and measured up to 60 mins by LC-MS/MS analysis; assay type: ADME, Microsome; conditions: 1 h
[11] = Clearance in mouse liver microsomes at 0.1 uM preincubated for 10 mins followed by NADPH addition and measured up to 60 mins by LC-MS/MS analysis; assay type: ADME, Microsome; conditions: 1 h
[12] = Half life in human liver microsomes at 0.1 uM preincubated for 10 mins followed by NADPH addition and measured up to 60 mins by LC-MS/MS analysis; assay type: ADME, Microsome
[13] = Half life in rat liver microsomes at 0.1 uM preincubated for 10 mins followed by NADPH addition and measured up to 60 mins by LC-MS/MS analysis; assay type: ADME, Microsome
[14] = Half life in mouse liver microsomes at 0.1 uM preincubated for 10 mins followed by NADPH addition and measured up to 60 mins by LC-MS/MS analysis; assay type: ADME, Microsome
[15] = molecular target: T1, Bromodomain-containing protein 4; assay: Inhibition of BRD4 (unknown origin)

Chain of Histone acetyltransferase p300 (Q09472 whole entry, the tested form may be a part): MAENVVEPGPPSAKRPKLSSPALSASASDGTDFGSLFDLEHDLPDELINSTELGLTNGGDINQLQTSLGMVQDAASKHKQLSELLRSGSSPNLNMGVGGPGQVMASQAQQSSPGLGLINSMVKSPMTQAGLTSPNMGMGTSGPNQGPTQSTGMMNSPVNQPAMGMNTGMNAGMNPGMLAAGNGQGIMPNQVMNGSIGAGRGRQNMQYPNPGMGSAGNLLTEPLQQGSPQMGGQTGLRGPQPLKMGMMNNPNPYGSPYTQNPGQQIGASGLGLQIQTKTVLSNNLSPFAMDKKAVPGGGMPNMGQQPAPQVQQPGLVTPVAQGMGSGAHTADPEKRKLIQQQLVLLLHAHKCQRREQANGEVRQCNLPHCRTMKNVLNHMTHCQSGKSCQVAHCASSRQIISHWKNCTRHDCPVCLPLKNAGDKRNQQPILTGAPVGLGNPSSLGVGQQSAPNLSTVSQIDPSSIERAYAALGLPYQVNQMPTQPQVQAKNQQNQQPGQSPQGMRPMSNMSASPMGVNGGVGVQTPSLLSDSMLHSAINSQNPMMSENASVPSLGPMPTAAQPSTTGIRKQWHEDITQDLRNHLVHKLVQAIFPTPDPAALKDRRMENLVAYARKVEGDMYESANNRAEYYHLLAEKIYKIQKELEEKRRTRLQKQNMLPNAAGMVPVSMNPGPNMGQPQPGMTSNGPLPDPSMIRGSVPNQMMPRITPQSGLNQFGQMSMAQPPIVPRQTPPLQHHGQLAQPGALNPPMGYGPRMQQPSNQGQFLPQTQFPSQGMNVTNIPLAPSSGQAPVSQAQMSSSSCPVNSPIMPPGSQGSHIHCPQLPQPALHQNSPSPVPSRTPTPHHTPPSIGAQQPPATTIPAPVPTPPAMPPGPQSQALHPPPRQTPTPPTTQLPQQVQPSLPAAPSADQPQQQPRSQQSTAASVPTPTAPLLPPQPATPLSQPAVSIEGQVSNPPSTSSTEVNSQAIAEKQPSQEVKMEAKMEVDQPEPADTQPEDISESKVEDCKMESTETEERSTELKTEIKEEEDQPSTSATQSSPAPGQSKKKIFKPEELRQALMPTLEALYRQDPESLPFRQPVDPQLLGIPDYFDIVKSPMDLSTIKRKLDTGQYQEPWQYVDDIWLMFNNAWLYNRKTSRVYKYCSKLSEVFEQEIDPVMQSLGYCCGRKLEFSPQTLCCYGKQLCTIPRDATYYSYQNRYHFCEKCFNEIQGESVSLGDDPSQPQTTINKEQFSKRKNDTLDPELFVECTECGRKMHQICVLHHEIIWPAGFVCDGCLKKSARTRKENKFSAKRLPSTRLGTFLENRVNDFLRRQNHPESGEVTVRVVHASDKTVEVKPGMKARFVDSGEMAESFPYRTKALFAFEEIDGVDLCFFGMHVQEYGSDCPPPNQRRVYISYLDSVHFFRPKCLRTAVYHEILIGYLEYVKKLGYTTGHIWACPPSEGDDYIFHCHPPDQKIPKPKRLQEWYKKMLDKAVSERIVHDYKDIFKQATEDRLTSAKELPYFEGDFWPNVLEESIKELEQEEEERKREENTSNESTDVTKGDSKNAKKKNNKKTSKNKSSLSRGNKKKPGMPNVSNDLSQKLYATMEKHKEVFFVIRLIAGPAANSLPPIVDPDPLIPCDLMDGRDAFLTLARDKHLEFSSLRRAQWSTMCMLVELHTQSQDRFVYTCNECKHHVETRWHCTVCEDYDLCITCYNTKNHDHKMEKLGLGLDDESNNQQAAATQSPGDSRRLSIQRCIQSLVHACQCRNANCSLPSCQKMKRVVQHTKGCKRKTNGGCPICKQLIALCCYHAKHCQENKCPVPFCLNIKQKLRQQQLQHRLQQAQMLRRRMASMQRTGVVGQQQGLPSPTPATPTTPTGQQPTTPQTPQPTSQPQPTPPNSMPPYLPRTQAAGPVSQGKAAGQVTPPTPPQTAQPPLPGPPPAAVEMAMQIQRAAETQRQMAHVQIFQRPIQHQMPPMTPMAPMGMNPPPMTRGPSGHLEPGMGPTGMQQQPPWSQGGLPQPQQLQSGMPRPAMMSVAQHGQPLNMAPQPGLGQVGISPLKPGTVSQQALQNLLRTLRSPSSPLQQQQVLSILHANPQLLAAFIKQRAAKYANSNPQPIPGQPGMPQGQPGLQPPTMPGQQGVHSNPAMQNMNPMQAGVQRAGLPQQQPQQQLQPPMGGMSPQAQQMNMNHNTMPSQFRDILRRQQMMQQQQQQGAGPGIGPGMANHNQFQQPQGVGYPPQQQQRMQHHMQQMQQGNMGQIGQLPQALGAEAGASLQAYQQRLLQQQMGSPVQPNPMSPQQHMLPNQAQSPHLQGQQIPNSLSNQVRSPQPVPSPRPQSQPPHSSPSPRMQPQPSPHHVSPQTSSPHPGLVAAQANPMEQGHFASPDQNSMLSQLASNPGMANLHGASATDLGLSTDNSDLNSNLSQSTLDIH

Row | Structure (SMILES) | IC50 [1] | IC50 [2] | IC50 [3] | ΔTm [4] | IC50 (MV4-11 [5]) | also measured
1 | Cc1cc(-c2cc(S(C)(=O)=O)cnc2Oc2ccc(F)cc2F)n2cc[nH]c(=O)c12 | 288 nM | 229 nM | > 33000 nM | > 1 °C | – | –
2 | Cc1sc2c(c1C)C(c1ccc(Cl)cc1)=N[C@@H](CC(=O)Nc1ccc(O)cc1)c1nnc(C)n1-2 [BIRABRESIB] | – | – | > 33000 nM | – | 46.3 nM | IC50 (Kasumi 1): 135 nM; IC50 (RS4-11): 416 nM; IC50 (MM1.S): 137 nM; Activity (MV4-11 [6]): Active; inhibition in vivo at 50 mg/kg (MV4-11 [7]): 62.3%
3 | CC(=O)C[C@@H]1N=C(c2ccc(Cl)cc2)c2c(sc(C)c2C)-n2c(C)nnc21 | – | – | – | – | – | IC50 [8]: 77 nM
4 | Cc1cc(-c2cc(CS(C)(=O)=O)ccc2Oc2ccc(F)cc2F)n2cc[nH]c(=O)c12 | – | – | 16500 nM | > 1 °C | 14.8 nM | Microsomal intrinsic clearance [9]: 115 mL/min/g; Intrinsic clearance [10]: 112 mL/min/g; Microsomal intrinsic clearance [11]: 380 mL/min/g; half-life at 0.1 µM [12]: 18.2 min; half-life at 0.1 µM [13]: 18.8 min; half-life at 0.1 µM [14]: 5.5 min
5 | Cc1cc(-c2cc(NS(C)(=O)=O)ccc2Oc2ccccc2)n2c1C(=O)NCC2 | 76 nM | 130 nM | 34700 nM | – | – | –
6 | Cc1cc(-c2cc(NS(C)(=O)=O)ccc2Oc2ccccc2)n2cc[nH]c(=O)c12 | – | – | 25100 nM | > 1 °C | 20.4 nM | Microsomal intrinsic clearance [9]: 74 mL/min/g; Intrinsic clearance [10]: 3039 mL/min/g; Microsomal intrinsic clearance [11]: 116 mL/min/g; half-life at 0.1 µM [12]: 28.4 min; half-life at 0.1 µM [13]: 0.7 min; half-life at 0.1 µM [14]: 18.1 min
7 | Cc1sc2c(c1C)C(c1ccc(Cl)cc1)=N[C@@H](CC(N)=O)c1nnc(C)n1-2 | – | – | – | – | – | IC50 [15]: 92 to 112 nM
8 | Cc1cc(-c2cc(S(=O)(=O)N(C)C)cnc2Oc2ccc(F)cc2F)n2cc[nH]c(=O)c12 | 740 nM | 772 nM | > 100000 nM | > 1 °C | – | –
9 | CC(=O)Nc1ccc(Oc2ccc(F)cc2F)c(-c2cc(C)c3c(=O)[nH]ccn23)c1 | 219 nM | 97.9 nM | > 100000 nM | > 1 °C | – | –
10 | Cc1cc(-c2cc(NS(C)(=O)=O)ccc2OC2CCOCC2)n2cc[nH]c(=O)c12 | – | – | > 33000 nM | > 1 °C | 387 nM | –
11 | Cc1cc(-c2ccccc2Oc2ccccc2)n2cc[nH]c(=O)c12 | 4500 nM | 1600 nM | – | > 1 °C | – | –
12 | CCS(=O)(=O)Nc1ccc(Oc2ccc(F)cc2F)c(-c2cc(C)c3c(=O)[nH]ccn23)c1 | – | – | 4000 nM | > 1 °C | 14.5 nM | Microsomal intrinsic clearance [9]: 62 mL/min/g; Intrinsic clearance [10]: 264 mL/min/g; Microsomal intrinsic clearance [11]: 229 mL/min/g; half-life at 0.1 µM [12]: 33.9 min; half-life at 0.1 µM [13]: 7.9 min; half-life at 0.1 µM [14]: 9.1 min
13 | Cc1cc(-c2cc(S(=O)(=O)NC(C)(C)C)cnc2Oc2ccc(F)cc2F)n2cc[nH]c(=O)c12 | 788 nM | 478 nM | > 100000 nM | > 1 °C | – | –
14 | CCS(=O)(=O)Nc1ccc(Oc2ccc(F)cc2F)c(-c2cn(C)c(=O)c3[nH]ccc23)c1 [MIVEBRESIB] | – | 2.7 nM | 63 nM | > 1 °C | 1.9 nM | IC50 (Kasumi 1): 6.3 nM; IC50 (RS4-11): 6.4 nM; IC50 (MM1.S): 6.5 nM
15 | Cc1cc(-c2cc(S(=O)(=O)N(C)C)ccc2Oc2ccc(F)cc2F)n2cc[nH]c(=O)c12 | 198 nM | 71.3 nM | > 100000 nM | > 1 °C | – | –
16 | Cc1cc(-c2cc(NS(C)(=O)=O)ccc2Nc2ccccc2)n2cc[nH]c(=O)c12 | 68 nM | 28.4 nM | > 33000 nM | > 1 °C | 257 nM | –
